According to patent publication US20240067632A1, “WEE1 Degrading Compounds and Uses Thereof” (Bristol-Myers Squibb Company, priority 2022, published 2024):

Assays:
MKN45 cells = experiment: MKN45 cell proliferation assay (Cell-Titer-Glo, 120 h); assay type: cell-based; settings: for EC50: Homo sapiens, MKN-45, 120 h, Cell-Titer-Glo, growth inhibition, read-out: MKN45 Cell Prolif. 120 hr (EC50); for MKN45 Cell Prolif. 120 hr (Ymin-Obs): minimal percent of DMSO control observed in the concentrations tested
In short: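 Growth inhibition was read as blank-corrected Cell-Titer-Glo luminescence expressed as percent DMSO control after 120 h at 37 C, 400 cells/well. Compounds tested in triplicate as 10-point half-log series from 1 or 10 uM, 0.1% DMSO; four-parameter fit gave EC50, and lowest observed percent control was reported as Ymin-obs.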

WEE1 = target: T1, WEE1 (Homo sapiens, UniProt P30291+Q96SW2); experiment: WEE1-ePL degradation assay (LentiX-WEE1-ePL-GSPT1-ND cells, InCELL Hunter luminescence, 4 h); assay type: cell-based; settings: 293T-LentiX WEE1-ePL cells; for 293T-LentiX WEE1-ePL Degradation 4 hr (Ymin): lower limit of the fit (0 = luciferase inhibitor, Ymax = DMSO control); for DC50: read-out: 293T-LentiX WEE1-ePL Degradation 4 hr (EC50)
T1 construct: C-terminal ePL-tagged (DiscoverX, Fremont, CA) full-length WEE1 expression construct; expressed in transfected cells; host or cells: LentiX-HEK293T (Invitrogen), lentiviral transduction; co-expressing GSPT1-GN (G576N, lacking the first 158 amino acids)
In short: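 HEK293T cells stably expressing C-terminal ePL-tagged full-length WEE1, 2500 cells/well, treated 4 h at 37° C with a 10-point 3-fold series from 1 or 10 uM. Remaining WEE1-ePL read by InCELL Hunter luminescence after 30 min. EC50 came from a four-parameter logistic fit, with Ymax set from DMSO control.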

| Structure (SMILES) | EC50 (MKN45 cells) [µM] | 293T-LentiX WEE1-ePL Degradation 4 hr (Ymin) (WEE1) | DC50 (WEE1) [µM] | MKN45 Cell Prolif. 120 hr (Ymin-Obs) (MKN45 cells) |
| --- | --- | --- | --- | --- |
| O=C1CCC(N2Cc3cc(O[C@H]4CCN(Cc5cc6ccccc6nn5)C4)ccc3C2=O)C(=O)N1 (stereo partly drawn) [3-(5-{[(3S)-1-[(cinnolin-3-yl)methyl]pyrrolidin-3-yl]oxy}-1-oxo-2,3-dihydro-1H-isoindol-2-yl)piperidine-2,6-dione] | 0.0663 | 26.03 | 0.0125 | 8.97 |
| O=C1CCC(N2Cc3cc(O[C@H]4CCN(Cc5ccc6nnccc6c5)C4)ccc3C2=O)C(=O)N1 (stereo partly drawn) [3-(5-{[(3S)-1-[(cinnolin-6-yl)methyl]pyrrolidin-3-yl]oxy}-1-oxo-2,3-dihydro-1H-isoindol-2-yl)piperidine-2,6-dione] | 0.0328 | 26.65 | 0.0125 | 8.19 |
| O=C1CCC(N2Cc3cc(O[C@H]4CCN(Cc5cc6ccccc6cn5)C4)ccc3C2=O)C(=O)N1 (stereo partly drawn) [3-(5-{[(3S)-1-[(isoquinolin-3-yl)methyl]pyrrolidin-3-yl]oxy}-1-oxo-2,3-dihydro-1H-isoindol-2-yl)piperidine-2,6-dione] | 0.0441 | 30.345 | 0.00405 | 13.47 |
| O=C1CCC(N2Cc3cc(O[C@H]4CCN(Cc5ccc6cnccc6c5)C4)ccc3C2=O)C(=O)N1 (stereo partly drawn) [3-(5-{[(3S)-1-[(isoquinolin-6-yl)methyl]pyrrolidin-3-yl]oxy}-1-oxo-2,3-dihydro-1H-isoindol-2-yl)piperidine-2,6-dione] | 0.0527 | 25.71 | 0.017 | 15.77 |
| O=C1CCC(N2Cc3cc(O[C@H]4CCN(Cc5ccc6ccncc6c5)C4)ccc3C2=O)C(=O)N1 (stereo partly drawn) [3-(5-{[(3S)-1-[(isoquinolin-7-yl)methyl]pyrrolidin-3-yl]oxy}-1-oxo-2,3-dihydro-1H-isoindol-2-yl)piperidine-2,6-dione] | 0.29 | 46 | 0.021 | 54.45 |
| CN1CC(c2ccc3cc(CN4CC[C@H](Oc5ccc6c(c5)CN(C5CCC(=O)NC5=O)C6=O)C4)ccc3n2)C1 (stereo partly drawn) [3-(5-{[(3S)-1-{[2-(1-methylazetidin-3-yl)quinolin-6-yl]methyl}pyrrolidin-3-yl]oxy}-1-oxo-2,3-dihydro-1H-isoindol-2-yl)piperidine-2,6-dione] | 0.0934 | 32 | 0.1 | 11.97 |
| CN1CCC(c2ccc3cc(CN4CC[C@H](Oc5ccc6c(c5)CN(C5CCC(=O)NC5=O)C6=O)C4)ccc3n2)CC1 (stereo partly drawn) [3-(5-{[(3S)-1-{[2-(1-methylpiperidin-4-yl)quinolin-6-yl]methyl}pyrrolidin-3-yl]oxy}-1-oxo-2,3-dihydro-1H-isoindol-2-yl)piperidine-2,6-dione] | 0.0217 | 30 | 0.0286 | 7.273 |
| O=C1CCC(N2Cc3cc(O[C@H]4CCN(Cc5ccc6nc(CC(F)F)ccc6c5)C4)ccc3C2=O)C(=O)N1 (stereo partly drawn) [3-(5-{[(3S)-1-{[2-(2,2-difluoroethyl)quinolin-6-yl]methyl}pyrrolidin-3-yl]oxy}-1-oxo-2,3-dihydro-1H-isoindol-2-yl)piperidine-2,6-dione] | 0.35 | 43.5 | 0.0334 | 21.74 |

Now those with a lower EC50 (MKN45 cells), led by results:

| EC50 (MKN45 cells) [µM] | 293T-LentiX WEE1-ePL Degradation 4 hr (Ymin) (WEE1) | DC50 (WEE1) [µM] | Structure (SMILES) | MKN45 Cell Prolif. 120 hr (Ymin-Obs) (MKN45 cells) |
| --- | --- | --- | --- | --- |
| 0.0024 | 29.5 | 0.00258 | O=C1CCC(N2Cc3cc(O[C@H]4CCN(Cc5ccc6nc(C7(O)CCC7)ccc6c5)C4)ccc3C2=O)C(=O)N1 (stereo partly drawn) [3-(5-{[(3S)-1-{[2-(1-hydroxycyclobutyl)quinolin-6-yl]methyl}pyrrolidin-3-yl]oxy}-1-oxo-2,3-dihydro-1H-isoindol-2-yl)piperidine-2,6-dione] | 7.94 |
| 0.00332 | 31 | 0.00269 | COC1(c2ccc3cc(CN4CC[C@H](Oc5ccc6c(c5)CN(C5CCC(=O)NC5=O)C6=O)C4)ccc3n2)CCC1 (stereo partly drawn) [3-(5-{[(3S)-1-{[2-(1-methoxycyclobutyl)quinolin-6-yl]methyl}pyrrolidin-3-yl]oxy}-1-oxo-2,3-dihydro-1H-isoindol-2-yl)piperidine-2,6-dione] | 7.4 |
| 0.00767 | 31 | 0.0116 | CC1(C)CN(c2ncc3cc(CN4CC[C@H](Oc5ccc6c(c5)CN(C5CCC(=O)NC5=O)C6=O)C4)ccc3n2)CCO1 (stereo partly drawn) [3-(5-{[(3S)-1-{[2-(2,2-dimethylmorpholin-4-yl)quinazolin-6-yl]methyl}pyrrolidin-3-yl]oxy}-1-oxo-2,3-dihydro-1H-isoindol-2-yl)piperidine-2,6-dione] | 9.381 |
| 0.00261 | 32 | 0.00241 | CC1(C)CN(c2ccc3cc(CN4CC[C@H](Oc5ccc6c(c5)CN(C5CCC(=O)NC5=O)C6=O)C4)ccc3n2)CCO1 (stereo partly drawn) [3-(5-{[(3S)-1-{[2-(2,2-dimethylmorpholin-4-yl)quinolin-6-yl]methyl}pyrrolidin-3-yl]oxy}-1-oxo-2,3-dihydro-1H-isoindol-2-yl)piperidine-2,6-dione] | 10.48 |
| 0.00214 | 29 | 0.00256 | CC1(C)CC(c2ccc3cc(CN4CC[C@H](Oc5ccc6c(c5)CN(C5CCC(=O)NC5=O)C6=O)C4)ccc3n2)CCO1 (stereo partly drawn) [3-(5-{[(3S)-1-{[2-(2,2-dimethyloxan-4-yl)quinolin-6-yl]methyl}pyrrolidin-3-yl]oxy}-1-oxo-2,3-dihydro-1H-isoindol-2-yl)piperidine-2,6-dione] | 7.959 |
| 0.0141 | 32.75 | 0.00409 | CC(C)(O)c1ccc2cc(CN3CC[C@H](Oc4ccc5c(c4)CN(C4CCC(=O)NC4=O)C5=O)C3)ccc2n1 (stereo partly drawn) [3-(5-{[(3S)-1-{[2-(2-hydroxypropan-2-yl)quinolin-6-yl]methyl}pyrrolidin-3-yl]oxy}-1-oxo-2,3-dihydro-1H-isoindol-2-yl)piperidine-2,6-dione] | 11.2475 |
| 0.00298 | 32.5 | 0.0026 | COC(C)(C)c1ccc2cc(CN3CC[C@H](Oc4ccc5c(c4)CN(C4CCC(=O)NC4=O)C5=O)C3)ccc2n1 (stereo partly drawn) [3-(5-{[(3S)-1-{[2-(2-methoxypropan-2-yl)quinolin-6-yl]methyl}pyrrolidin-3-yl]oxy}-1-oxo-2,3-dihydro-1H-isoindol-2-yl)piperidine-2,6-dione] | 6.21 |
| 0.0112 | 25.84 | 0.0185 | O=C1CCC(N2Cc3cc(O[C@H]4CCN(Cc5ccc6nc(N7CCCC(F)(F)C7)ccc6c5)C4)ccc3C2=O)C(=O)N1 (stereo partly drawn) [3-(5-{[(3S)-1-{[2-(3,3-difluoropiperidin-1-yl)quinolin-6-yl]methyl}pyrrolidin-3-yl]oxy}-1-oxo-2,3-dihydro-1H-isoindol-2-yl)piperidine-2,6-dione] | 12.35 |
